Source: patent US20090274636A1, “TOOTH ENAMEL DISSOLUTION INHIBITOR” (priority 2006, published 2009)

Assay: Phosphorus dissolution from sintered hydroxyapatite (tooth enamel model) in 2 wt. % citric acid, ICP-AES
Details: for Phosphorus Dissolution Rate (%): 2 wt. % citric acid, pH 2.5, shaken two days, negative control = 100%
Procedure: In order to evaluate the inhibitory activity of subject substances on the dissolution (decalcification) of tooth enamel, the following tests were conducted using sintered hydroxyapatite as a tooth enamel model.
Thus, 10 ml of test solution was prepared. The test solution (10 ml) and a piece (720 mg, 10×10×2 mm) of sintered hydroxyapatite (APP-100; PENTAX Corp.) were put into a 15-ml polypropylene tube and the tube was sealed. The tube was shaken horizontally at about 120 times per minute for two days. After the shaking, the amount of phosphorus dissolved from the sintered hydroxyapatite was measured in each test solution by high-frequency inductively coupled plasma atomic emission spectrophotometry (ICP-AES). Another test was conducted as a negative control in the same manner as above, using a 2 wt. % citric acid solution (adjusted to pH 2.5 with sodium hydrate) as a test solution. Still another test was conducted as a positive control in the same manner as above, using CaCl2 (10 mM) as a subject substance. Taking the amount of phosphorus dissolved in the negative control as 100%, the phosphorus dissolution rate (%) was calculated for each subject substance.

Compound	Phosphorus Dissolution Rate (%) (subject substance 10 mM)	Phosphorus Dissolution Rate (%) (subject substance 0.2 wt. %)	Phosphorus Dissolution Rate (%) (subject substance 0.5 wt. %)	inhibitory effect on phosphorus dissolution from the sintered hydroxyapatite due to citric acid (in words) (summary of Table 1 results)
[Ca+2].[Cl-].[Cl-] [CaCl2, reference compound]	75.0%			
OC[C@H]1O[C@@H]2O[C@H]3[C@H](O)[C@@H](O)[C@@H](O[C@H]4[C@H](O)[C@@H](O)[C@@H](O[C@H]5[C@H](O)[C@@H](O)[C@@H](O[C@H]6[C@H](O)[C@@H](O)[C@@H](O[C@H]7[C@H](O)[C@@H](O)[C@@H](O[C@H]8[C@H](O)[C@@H](O)[C@@H](O[C@H]1[C@H](O)[C@H]2O)O[C@@H]8CO)O[C@@H]7CO)O[C@@H]6CO)O[C@@H]5CO)O[C@@H]4CO)O[C@@H]3CO [β-cyclodextrin]		98.6%	79.7%	effectively suppressed phosphorus dissolution
